Results from US9150548B2, “Combinations of AKT inhibitor compounds and vemurafenib, and methods of use” (Genentech, Inc., priority 2011, dated 2015).

Legend:
[1] = test system: LuCap35V primary human prostate tumor model; experiment: In vivo tumor xenograft efficacy, LuCap35V (FIG. 1); set-up: species or system mice
Source text: FIG. 1 illustrates results for the compound of Example 2 and docetaxel in LuCap35V primary prostate tumors. FIG. 2 illustrates results for the compound of Example 2 dosed intermittently either PO or IP and docetaxel in PC3-NCI prostate tumors. FIG. 3 illustrates results for the compound of Example 2 dosed PO and docetaxel in PC3-NCI prostate tumors. FIG. 4 illustrates results for the compound of Example 2 dosed IP intermittently and docetaxel in MCF7-neo/HER2 tumors. FIG. 5 illustrates results for the compound of Example 2 dosed PO and docetaxel in MCF7-neo/HER2 breast tumors. FIG. 6 illustrates results for the compound of Example 2 and docetaxel in MAXF401 mammary tumors. FIG. 7 illustrates results for the compound of Example 2 and docetaxel in SKOV3 ovarian tumors. FIG. 8 illustrates results for the compound of Example 2 and cisplatnin in SKOV3 ovarian tumors. FIG. 9 illustrates results for the compound of Example 2 dosed PO and carboplatin in IGROV-1 ovarian tumors. FIG. 10 illustrates results for the compound of Example 2 and GDC-0973 at 2.5 mg/kg in H2122 NCI-NSCL tumors. FIG. 11 illustrates results for the compound of Example 2 and GDC-0973 at 5.0 mg/kg in NCI-H2122 NSCLC tumors. FIG. 12 illustrates results for the compound of Example 2 and GDC-0973 at 7.5 mg/kg in NCI-H2122 NSCLC tumors. FIG. 13 illustrates results for the compound of Example 2 and MDV3100 in LuCap35V tumors.

PTEN null line = experiment: CellTiter-Glo combination assay with docetaxel (FIG. 19); format: cell-based
Source text: Viable cells are reflected in relative luminescence units (RLU).

[2] = active metabolite vs irinotecan itself; cited from earlier work
[3] = test system: prostate specific antigen serum levels; settings: after a month of taking the medicine; cited from earlier work

Compound: CC(C)NC[C@@H](C(=O)N1CCN(c2ncnc3c2[C@H](C)C[C@H]3O)CC1)c1ccc(Cl)cc1 [Example 2, (S)-2-(4-chlorophenyl)-1-(4-((5R,7R)-7-hydroxy-5-methyl-6,7-dihydro-5H-cyclopenta[d]pyrimidin-4-yl)piperazin-1-yl)-3-(isopropylamino)propan-1-one]
- tumor response (FIG. 1) [1]: tumor stasis
- single agent response (PTEN null line): minimal single agent response

Compound: CC(=O)O[C@@]12CO[C@@H]1C[C@H](O)[C@@]1(C)C(=O)[C@H](O)C3=C(C)[C@@H](OC(=O)[C@H](O)[C@@H](NC(=O)OC(C)(C)C)c4ccccc4)C[C@@](O)([C@@H](OC(=O)c4ccccc4)[C@H]21)C3(C)C [docetaxel, (2R,3S)—N-carboxy-3-phenylisoserine, N-tert-butyl ester, 13-ester with 5, 20-epoxy-1,2,4,7,10,13-hexahydroxytax-11-en-9-one 4-acetate 2-benzoate, trihydrate]
- tumor response (FIG. 1) [1]: tumor stasis

Compound: CCc1c2c(nc3ccc(O)cc13)-c1cc3c(c(=O)n1C2)COC(=O)[C@]3(O)CC [SN-38, 7-ethyl-10-hydroxy-camptothecin]
- activity relative to irinotecan [2]: 200 times

Compound: CNC(=O)c1ccc(N2C(=S)N(c3ccc(C#N)c(C(F)(F)F)c3)C(=O)C2(C)C)cc1F [MDV3100, 4-(3-(4-cyano-3-(trifluoromethyl)phenyl)-5,5-dimethyl-4-oxo-2-thioxoimidazolidin-1-yl)-2-fluoro-N-methylbenzamide]
- decrease in prostate specific antigen serum levels [3]: ≤ 89%
